Several values for one entry are separate records, joined by “and”; a condition that tells them apart may be missing. Identical values can stand only once.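 Cells were grown in 96-well plates and exposed to each compound for 48 hours at five concentrations; endpoints were interpolated linearly between bracketing concentrations, or set to the highest concentration if not reached. At the GI50, growth is halved. The concentration for full growth arrest is given as TGI.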 Peptide text beside a SMILES is read from it. * marks the point of attachment. X34 = O=C(c1ccc(-c2ccc(Cl)cc2Cl)o1)*
Experiments:
Assay in all cases: growth of human tumour cells (NCI), 48 h
U251 CNS = tested on: U251 CNS
HL-60(TB) leukemia = tested on: HL-60(TB) leukemia
OVCAR-3 ovarian = tested on: OVCAR-3 ovarian
MOLT-4 leukemia = tested on: MOLT-4 leukemia
PC-3 prostate = tested on: PC-3 prostate
SR leukemia = tested on: SR leukemia
UACC-257 melanoma = tested on: UACC-257 melanoma
MALME-3M melanoma = tested on: MALME-3M melanoma
MDA-MB-435 = tested on: MDA-MB-435
SW-620 colon = tested on: SW-620 colon

Row | Structure (SMILES) | TGI (U251 CNS) | TGI (HL-60(TB) leukemia) | TGI (OVCAR-3 ovarian) | TGI (MOLT-4 leukemia) | TGI (PC-3 prostate) | TGI (SR leukemia) | TGI (UACC-257 melanoma) | TGI (MALME-3M melanoma) | TGI (MDA-MB-435) | TGI (SW-620 colon) | GI50 (MOLT-4 leukemia) | GI50 (SR leukemia) | GI50 (U251 CNS) | GI50 (HL-60(TB) leukemia) | GI50 (OVCAR-3 ovarian) | GI50 (PC-3 prostate) | GI50 (UACC-257 melanoma) | GI50 (MALME-3M melanoma) | GI50 (MDA-MB-435) | GI50 (SW-620 colon)
1 | CC1=C(SCCO)C(=O)c2ccccc2C1=O | 26.1 µM | > 100 µM | 15.3 µM | > 100 µM | 25.1 µM | > 100 µM | 25.8 µM | 27.3 µM | 23.9 µM | 33.1 µM |  |  |  |  |  |  |  |  |  | 
2 | CCCCC(=O)c1c(O)ccc2c(C)cc(=O)oc12 | > 100 µM | > 100 µM | > 100 µM | > 100 µM | > 100 µM | > 100 µM | > 100 µM | > 100 µM | > 100 µM | > 100 µM |  |  |  |  |  |  |  |  |  | 
3 | CC[C@@]1(O)C[C@H](OC2CC(N(C)C)C(OC3CC(O)C(OC4CCC(=O)C(C)O4)C(C)O3)C(C)O2)c2c(cc3c(c2O)C(=O)c2c(O)cccc2C3=O)C1C(=O)OC (some centres not stated) | 2.72 µM and 9.24 µM |  | 0.23 µM and 1.96 µM | 0.655 µM | 1.47 µM | 1.23 µM | 0.202 µM and 0.993 µM | 0.0948 µM and 0.569 µM |  |  | 0.00383 µM | 0.00493 µM |  |  |  |  |  |  |  | 
4 | C1=CC=C2NCCc3cccc(c3)CCNC3=CC=CC=CC3=NCCCCCCN=C2C=C1 | > 100 µM | 20.9 µM | 99 µM | 38.3 µM |  | 82.4 µM | 41.8 µM | > 100 µM |  | 80.7 µM |  |  |  |  |  |  |  |  |  | 
5 | [C-]#[N+]C(=C\c1ccc(O)cc1)/C(=C/c1ccc(O)cc1)[N+]#[C-] | > 23.7 µM | > 24 µM | > 100 µM | 7.67 µM | > 26.7 µM | 5.86 µM | 6.98 µM | 4.39 µM | > 19.8 µM | > 34.3 µM |  |  |  |  |  |  |  |  |  | 
6 | N#Cc1ccc([N+](=O)[O-])cc1NC(N)=S | > 100 µM |  | > 100 µM | > 100 µM |  | > 100 µM |  | > 100 µM |  | > 100 µM |  |  |  |  |  |  |  |  |  | 
7 | O=S(=O)(O)c1cc(S(=O)(=O)O)c2c(N=Nc3ccc(S(=O)(=O)O)c4ccccc34)c(O)ccc2c1 | > 100 µM | > 100 µM | > 100 µM | > 100 µM | > 100 µM |  | > 100 µM | > 100 µM | > 100 µM | > 100 µM |  |  |  |  |  |  |  |  |  | 
8 | CC(=O)OCCCCN1C(=O)CSc2ccccc21 | > 100 µM | > 100 µM | > 100 µM | > 100 µM | > 100 µM | > 100 µM | > 100 µM |  | > 100 µM | > 100 µM |  |  |  |  |  |  |  |  |  | 
9 | CC(C)C1=CC2=CC[C@@H]3[C@](C)(CCC[C@@]3(C)C(=O)O)[C@H]2CC1 | > 100 µM | > 88.3 µM | 72.4 µM | > 75.7 µM |  | > 100 µM | > 100 µM | > 100 µM |  | > 100 µM |  |  |  |  |  |  |  |  |  | 
10 | CN(C)c1ccc(C2CC(=O)CC(c3ccc(N(C)C)cc3)C23C(=O)NC(=S)NC3=O)cc1 (configuration not stated) | > 100 µM | > 100 µM | > 100 µM | > 100 µM | > 100 µM | > 100 µM | > 100 µM | > 100 µM | > 100 µM | > 100 µM |  |  |  |  |  |  |  |  |  | 
11 | C=CCn1c(=O)c(Br)nn(CCOCP(=O)(OCC)OCC)c1=O | > 100 µM | > 100 µM | > 100 µM | > 100 µM | > 100 µM | > 100 µM | > 100 µM | > 100 µM | > 100 µM | > 100 µM |  |  |  |  |  |  |  |  |  | 
12 | COc1cc2c3c(n(CCCn4cncn4)c(=O)c2cc1OC)-c1cc2c(cc1C3=O)OCO2 | 31.8 µM | 1.16 µM | > 100 µM | 0.242 µM | > 100 µM |  | > 100 µM | > 48.1 µM | > 100 µM | > 100 µM | < 0.01 µM | < 0.01 µM | < 0.0449 µM | < 0.0131 µM | 31.9 µM | 39.8 µM | > 100 µM | 1.36 µM | > 100 µM | 1.08 µM
13 | COc1ccc(C(=O)c2nc3ccccc3nc2N2CCN(c3ccccc3)CC2)cc1OC | > 100 µM | > 100 µM | > 100 µM | > 100 µM | > 100 µM | > 100 µM | > 100 µM | > 100 µM | > 100 µM | > 100 µM |  |  |  |  |  |  |  |  |  | 
14 | COC(=O)C(CC(C)C)NC(=O)C(Cc1ccccc1)NC(=O)C1CCCN1C(=O)C(CO)NC(=O)c1ccc(-c2ccc(Cl)cc2Cl)o1 (configuration not stated) (X34-SPFL-OMe; configuration not given here) | 55.9 µM | 69.6 µM |  | 80 µM | > 100 µM |  | 57.8 µM | > 100 µM | 90.3 µM | > 100 µM |  |  |  |  |  |  |  |  |  | 
15 | COc1nc2ccc(CNc3ccc(C(=O)NC(CCC(=O)O)C(=O)O)cc3)cc2nc1OC (configuration not stated) | > 100 µM | > 100 µM | > 100 µM | > 100 µM | > 100 µM | > 100 µM | > 100 µM | > 100 µM | > 100 µM | > 100 µM |  |  |  |  |  |  |  |  |  | 
16 | O=Cc1ccccc1CCn1c(=O)c2cc3c(=O)n(CCc4ccccc4C=O)c(=O)c3cc2c1=O | > 100 µM | > 100 µM | > 100 µM | > 100 µM |  |  | > 100 µM | > 100 µM |  | > 100 µM |  |  |  |  |  |  |  |  |  | 
17 | CN1c2c(nc(N)[nH]c2=O)NCC1CCNc1ccc(C(=O)NC(CCC(=O)O)C(=O)O)cc1 (configuration not stated) | 2080 µM | 2250 µM | 2460 µM | 2650 µM | 1750 µM | 2530 µM | 2360 µM | 2770 µM | 1770 µM | 1810 µM |  |  |  |  |  |  |  |  |  | 
18 | O=c1oc2cc(O)ccc2c2oc3cc(O)ccc3c12 | 93.5 µM | > 125 µM | 114 µM | 83.3 µM |  |  | 124 µM | > 125 µM |  | > 125 µM |  |  |  |  |  |  |  |  |  | 
19 | CC(=O)OC12CC[N+]3(C)CCCCC3C1=Nc1ccccc12 (configuration not stated) | > 100 µM | > 100 µM | > 100 µM | > 100 µM | > 100 µM | > 100 µM | > 100 µM | > 100 µM | > 100 µM | > 100 µM |  |  |  |  |  |  |  |  |  | 
20 | Nc1nc(SCCNC(=O)CCc2ccc(O)c(I)c2)nc2c1ncn2C1OC(CO)C(O)C1O (configuration not stated) | > 100 µM | > 100 µM | > 100 µM | > 100 µM |  | > 100 µM | > 100 µM | > 100 µM |  | > 100 µM |  |  |  |  |  |  |  |  |  | 
21 | CCOc1ccccc1Nc1ccc(N)cc1S(=O)(=O)O | > 100 µM |  | > 100 µM | > 100 µM | > 100 µM | > 100 µM | > 100 µM | > 100 µM | > 100 µM | > 100 µM |  |  |  |  |  |  |  |  |  | 
22 | CC[C@@H]1CSC(/C=C/C2OC3OC(C)(C)OC3C3OC(C)(C)OC23)=N1 (some centres not stated) | 26.4 µM | 5.67 µM | 16.7 µM | 26.6 µM | 26 µM | 37.4 µM | 26.4 µM | 23.8 µM | 20 µM | 11.2 µM |  |  |  |  |  |  |  |  |  | 

— PubChem BioAssay (NCI)
